Results taken from patent US20140018353A1, “METHOD OF TREATING B-CELL MALIGNANT CANCERS AND T-CELL MALIGNANT CANCERS USING THIENOTRIAZOLODIAZEPINE COMPOUNDS” (Oncoethix SA, priority 2012, published 2014).
Entries after “also recorded” stand apart in the source; their conditions may differ. Blank lines part the entries; values can stand above or below the molecule they belong to.

How the values were obtained:
[1] = test system: MYC mRNA in MM cell lines; settings: reported; cited from earlier work
DLBCL cell lines [2] = experiment: Cell cycle analysis, flow cytometry; type: cell-based, human; settings: five DLBCL cell lines, 24 h
Experimental: (§1) Cell cycle analysis was performed using the following procedure. Cells were treated with DMSO or different doses of Formula 2 for 24 hours, harvested and washed once in PBS and then fixed in 80% ethanol at 4° C. for at least one hour. Cells were stained with propidium iodide (PI 50 μg/ml, Sigma) in PBS containing RNAse-A (75 kU/ml, Sigma) and analyzed for DNA content using a FACScan flow cytometer (Becton Dickinson). Cell cycle analysis was performed using the ModFit LT software package (Verity Software House, Inc., Topsham, Me., USA).
Not having observed the induction of massive cell death despite the important effect on cell viability, the effect of Formula 2 on the cell cycle was investigated (FIG. 6). […] FIG. 7 illustrates representative flow cytometry profiles of untreated control cells and SU-DHL-6 cells treated for 24 hours with 0.2 in μM of Formula 2.

MM cell lines [3] = experiment: Cell cycle analysis, flow cytometry; type: cell-based, human; settings: two of the three MM cell lines
Experimental: as §1
(§2) The activity of Formula 2 was also evaluated in MM cell lines. […] All the BRD factors were expressed (FIG. 14).

MM cell lines [4] = experiment: Cell death, propidium iodide flow cytometry; type: cell-based, human
Experimental: (§3) Cell death was evaluated as follows. Cells were treated with DMSO or different doses of Formula 2 for 72 hours, harvested and washed once in PBS and then stained with propidium iodide (PI 1 μg/ml, Sigma) in PBS and analyzed using a FACScan flow cytometer (Becton Dickinson, Mountain View, Calif., USA). The analysis of the percentage of cell death was performed using CellQuest Pro software (Becton Dickinson).
as §2

MCL cell lines = experiment: MTT proliferation assay, 72 h; type: cell-based, human; settings: three MCL cell lines
Experimental: (§4) The activity of Formula 2 was evaluated in four mantle cell lymphoma (MCL), ten diffuse large B-cell lymphoma (DLBCL) established human cell lines, a set of multiple myeloma (MM) cell lines, three splenic marginal zone lymphoma (SMZL) cell lines and eight anaplastic large T-cell lymphoma (ALCL) cell lines. Cells were exposed to increasing doses of the compound for 72 hours.
(§5) The proliferation assay was performed using the following procedure. Cells were seeded into 96-well plates at the density of 104 per well. Formula 2 (Oncoethix SA, Lausanne, Switzerland) was dissolved in DMSO as a stock solution of 10 mM and divided in aliquots stored at −80° C. For each experiment, an aliquot of the stock solution was thawed and used within 2 to 3 days. Formula 2 was serially diluted in tissue culture media, added to cells (in five replicates) and incubated for 72 hours at 37° C. Control cells were treated with equal amounts of DMSO. The 3-(4,5-dimethylthiazol-2-yl)-2,5-diphenyltetrazolium bromide (MTT) (Sigma, Buchs, Switzerland) was prepared as a stock of 5 mg/mL in phosphate-buffered saline (PBS) and filter-sterilized. An amount of MTT solution equal to 0.5 mg/mL was then added to each well and incubated in the dark at 37° C. for 4 hours. Cells were then lysed with 25% sodium dodecylsulfate (SDS) lysis buffer and absorbance was read at 570 nm on a Beckman Coulter-AD340 instrument. Three independent experiments were run for each cell line. The doses corresponding to the IC50 were estimated by fitting a sigmoidal model through the dose response curve using the R statistical package (R: A Language and Environment for Statistical Computing, R Foundation for Statistical Computing, Vienna, Austria).

VAL = experiment: MTT proliferation assay, 72 h; type: cell-based, human
Experimental: as §4, §5

DLBCL cell lines [5] = experiment: MTT proliferation assay, 72 h; type: cell-based, human; settings: for IC50: Homo sapiens
Experimental: as §4, §5

MM cell lines [6] = experiment: MTT proliferation assay, 72 h; type: cell-based, human; settings: all MM cell lines
Experimental: as §4, §5

[7] = test system: NFκB target genes in DLBCL cell lines; experiment: NFκB target gene expression; type: cell-based, human; settings: two DLBCL cell lines
Experimental: (§6) RNA was extracted using the RNA easy kit (Qiagen AG, Hombrechtikon, Switzerland). The concentration of total RNA was determined spectrophotometrically at 260 nm using a NanoDrop spectrometer (NanoDrop Technologies, Wilmington, Del., USA). One microgram of total RNA was reverse-transcribed using the Superscript First-Strand Synthesis System for real-time PCR kit (Invitrogen, Karlsruhe, Germany) according to the manufacturer's instructions. PCR amplification was performed using Fast SYBR Green Master Mix on a StepOnePlus real-time PCR System (Applied Biosystems, Foster City, Calif., USA). Primer sets (Table 2) were designed using the Primer3 software package (Rozen, S., Skaletsky, H. Primer3 on the WWW for general users and for biologist programmers. In: Misener, S., Krawetz, S. A., Eds. Methods in Molecular Biology, Vol. 132: Bioinformatics Methods and Protocols. Totowa, N.J., USA: Humana Press Inc., 2000, pp. 365-386). All samples were analyzed in triplicate. The relative quantity of the specific mRNA for each sample was calculated based on mean cycle threshold (Ct) values using the delta-delta Ct with a correction for experimental variations by normalization to the housekeeping gene GAPDH.
BRD4 co-activates transcriptional activation of NF-B via specific binding to acetylated ReIA. […]

ALCL cell lines = experiment: MTT proliferation assay; type: cell-based, human; settings: eight ALCL cell lines
Experimental: as §4
as §5, with “An amount of MTT solution equal to 0.5 mg/mL was then added to each well and incubated in the dark at 37° C. for 4 hours.” left out, “Three independent experiments were run for each cell line. The doses corresponding to the IC50 were estimated by fitting a sigmoidal model through the dose response curve using the R statistical package (R: A Language and Environment for Statistical Computing, R Foundation for Statistical Computing, Vienna, Austria).” left out
The activity of Formula 2 was also evaluated in ALCL cell lines using the procedures described in Example 1. […]

SMZL cell lines = experiment: MTT proliferation assay; type: cell-based, human; settings: three SMZL cell lines
Experimental: as §4
as §5, with “An amount of MTT solution equal to 0.5 mg/mL was then added to each well and incubated in the dark at 37° C. for 4 hours.” left out, “Three independent experiments were run for each cell line. The doses corresponding to the IC50 were estimated by fitting a sigmoidal model through the dose response curve using the R statistical package (R: A Language and Environment for Statistical Computing, R Foundation for Statistical Computing, Vienna, Austria).” left out
The activity of Formula 2 was also evaluated in SMZL cell lines using the procedures described in Example 1. […]

MAVER-1 = experiment: MTT proliferation assay, 72 h; type: cell-based; settings: Homo sapiens, Maver1, MAVER-1 (MCL), read-out: estimated IC50
Experimental: as §4, §5

SU-DHL-7 = experiment: MTT proliferation assay, 72 h; type: cell-based; settings: Homo sapiens, SU-DHL-7 (DLBCL), read-out: estimated IC50
Experimental: as §4, §5

U266 = experiment: MTT proliferation assay, 72 h; type: cell-based; settings: Homo sapiens, U-266, U266 (MM), read-out: estimated IC50
Experimental: as §4, §5

OCI-Ly7 = experiment: MTT proliferation assay, 72 h; type: cell-based; settings: Homo sapiens, OCI-Ly7 (DLBCL), read-out: estimated IC50
Experimental: as §4, §5

MM1S = experiment: MTT proliferation assay, 72 h; type: cell-based; settings: Homo sapiens, MM1.S, MM1S (MM), read-out: estimated IC50
Experimental: as §4, §5

SU-DHL-6 = experiment: MTT proliferation assay, 72 h; type: cell-based; settings: Homo sapiens, SU-DHL-6 (DLBCL), read-out: estimated IC50
Experimental: as §4, §5

DoHH2 = experiment: MTT proliferation assay, 72 h; type: cell-based; settings: Homo sapiens, DOHH-2, DoHH2 (DLBCL), read-out: estimated IC50
Experimental: as §4, §5

JeKo-1 = experiment: MTT proliferation assay, 72 h; type: cell-based; settings: Homo sapiens, JeKo-1 (MCL), read-out: estimated IC50
Experimental: as §4, §5

Granta-519 = experiment: MTT proliferation assay, 72 h; type: cell-based; settings: Homo sapiens, Granta-519 (MCL), read-out: estimated IC50
Experimental: as §4, §5

Karpass 422 = experiment: MTT proliferation assay, 72 h; type: cell-based; settings: Homo sapiens, Karpass 422 (DLBCL), read-out: estimated IC50
Experimental: as §4, §5

SU-DHL-4 = experiment: MTT proliferation assay, 72 h; type: cell-based; settings: Homo sapiens, SU-DHL-4 (DLBCL), read-out: estimated IC50
Experimental: as §4, §5

RPMI8226 = experiment: MTT proliferation assay, 72 h; type: cell-based; settings: Homo sapiens, RPMI-8226, RPMI8226 (MM), read-out: estimated IC50
Experimental: as §4, §5

Rec-1 = experiment: MTT proliferation assay, 72 h; type: cell-based; settings: Homo sapiens, Rec1, Rec-1 (MCL), read-out: estimated IC50
Experimental: as §4, §5

SU-DHL-2 = experiment: MTT proliferation assay, 72 h; type: cell-based; settings: Homo sapiens, SU-DHL-2 (DLBCL), read-out: estimated IC50
Experimental: as §4, §5

SU-DHL-5 = experiment: MTT proliferation assay, 72 h; type: cell-based; settings: Homo sapiens, SU-DHL-5 (DLBCL), read-out: estimated IC50
Experimental: as §4, §5

U-2932 = experiment: MTT proliferation assay, 72 h; type: cell-based; settings: Homo sapiens, U2932, U-2932 (DLBCL), read-out: estimated IC50
Experimental: as §4, §5

MM cell lines [8] = experiment: % Annexin V positive cells; type: cell-based, human; settings: doses at IC50, 24 hours
Experimental: FIG. 18 illustrates the % Annexin V positive cells obtained after doses of Formula 2 at IC50 and 24 hours.

[9] = test system: c-MYC mRNA in DLBCL cell lines; experiment: c-MYC mRNA levels, real-time PCR; type: cell-based, human
Experimental: as §6

DLBCL cell lines [10] = experiment: Cell death, propidium iodide flow cytometry; type: cell-based, human; settings: 24 and 72 hours, 0.1-15 μM; SU-DHL-2 and DoHH2
Experimental: as §3, with “[…],” for “Cells were treated with DMSO or different doses of Formula 2 for 72 hours,”

c-MYC in ALCL cell lines = experiment: c-MYC mRNA levels, real-time PCR; type: cell-based, human; settings: 8 and 24 hours of treatment
Experimental: as §6
FIGS. 25A-25E illustrate c-MYC levels in ALCL cell lines after 8 hours of treatment with Formula 2. FIG. 26 illustrates c-MYC levels in ALCL cell lines after 24 hours of treatment with Formula 2.

[11] = test system: MYC mRNA in MM cell lines; experiment: MYC mRNA levels, real-time PCR; type: cell-based, human; settings: RPMI8226 and MM1S cell lines, 24 hours
Experimental: as §6

Compound: Cc1sc2c(c1C)C(c1ccc(Cl)cc1)=N[C@@H](CC(=O)OC(C)(C)C)c1nnc(C)n1-2 [JQ1]
MYC levels [1]: down-regulation of MYC

IC50 (SU-DHL-7): 132 nM | IC50 (U266): 449 nM | IC50 (OCI-Ly7): 1390 nM | IC50 (MM1S): 59 nM | IC50 (SU-DHL-6): 110 nM | IC50 (Karpass 422): 277 nM | IC50 (SU-DHL-4): 607 nM | IC50 (RPMI8226): 700 nM | IC50 (SU-DHL-2): 69 nM | IC50 (SU-DHL-5): 189 nM
Compound: Cc1sc2c(c1C)C(c1ccc(Cl)cc1)=N[C@@H](CC(=O)Nc1ccc(O)cc1)c1nnc(C)n1-2 [Formula 2, (S)-2-[4-(4-chlorophenyl)-2,3,9-trimethyl-6H-thieno[3,2-f][1,2,4]triazolo-[4,3-a][1,4]diazepin-6-yl]-N-(4-hydroxyphenyl)acetamide]
effect on the cell cycle (DLBCL cell lines [2]): induced a G1-arrest in a dose-dependent manner | cell cycle analysis, S-phase (MM cell lines [3]): significant reduction of S-phase | cell death (MM cell lines [4]): did not show an important increase of cell death | IC50 (MCL cell lines; Homo sapiens): 1200 to 2700 nM | cell viability (MCL cell lines): dose-dependent decrease in cell viability | IC50 (VAL; Homo sapiens, VAL (DLBCL), MTT, 72 h, read-out: estimated IC50): > 12700 nM | reduction in cell proliferation (VAL; VAL, doses of up to 10 μM): over 40% | IC50 (DLBCL cell lines [5]; seven very sensitive DLBCL cell lines): < 300 nM | IC50 (DLBCL cell lines [5]; two DLBCL cell lines): 600 to 1400 nM | cell viability (DLBCL cell lines [5]; all the DLBCL cell lines): dose-dependent decrease in cell viability | IC50 (MM cell lines [6]; Homo sapiens): 60 to 700 nM | cell viability (MM cell lines [6]): reduction in cell viability in all the cell lines | NFκB target genes expression [7]: partial down-regulation of NFκB target genes | cell viability (ALCL cell lines): dose-dependent decrease in cell viability | cell viability (SMZL cell lines): dose-dependent decrease in cell viability | IC50 (MAVER-1): 1220 nM | IC50 (DoHH2): 90 nM | IC50 (JeKo-1): 2790 nM | IC50 (Granta-519): > 15000 nM | IC50 (Rec-1): 1220 nM | IC50 (U-2932): 255 nM | cytostatic versus cytotoxic effect (% Annexin V positive cells) (MM cell lines [8]): cytostatic effect | c-MYC mRNA levels ([9]; six DLBCL cell lines, 24 hours of treatment): down-regulated in five of the six cell lines | c-MYC levels ([9]; three DLBCL cell lines, 1 hour of treatment): down-regulation of c-MYC in two of three DLBCL cell lines | cell death (DLBCL cell lines [10]): induces cell death only in a small percentage of the cell | c-MYC levels (c-MYC in ALCL cell lines): down-regulation of c-MYC in a dose-dependent manner | MYC mRNA levels [11]: significant reduction of MYC mRNA levels in a dose-dependent manner; also recorded: down-regulation of c-MYC in a dose-dependent manner
